Tests used:
Format in all cases: cell-based
hOX2R = biological target: T1, hOX2R (Homo sapiens, UniProt O43614); test: Whole cell FLIPR functional assay, comparison with reference compounds, hOX2R; parameters: expressed in transfected cells; conditions: read-out: hOX2R pIC50 (converted)
T1 sequence (O43614 1-444): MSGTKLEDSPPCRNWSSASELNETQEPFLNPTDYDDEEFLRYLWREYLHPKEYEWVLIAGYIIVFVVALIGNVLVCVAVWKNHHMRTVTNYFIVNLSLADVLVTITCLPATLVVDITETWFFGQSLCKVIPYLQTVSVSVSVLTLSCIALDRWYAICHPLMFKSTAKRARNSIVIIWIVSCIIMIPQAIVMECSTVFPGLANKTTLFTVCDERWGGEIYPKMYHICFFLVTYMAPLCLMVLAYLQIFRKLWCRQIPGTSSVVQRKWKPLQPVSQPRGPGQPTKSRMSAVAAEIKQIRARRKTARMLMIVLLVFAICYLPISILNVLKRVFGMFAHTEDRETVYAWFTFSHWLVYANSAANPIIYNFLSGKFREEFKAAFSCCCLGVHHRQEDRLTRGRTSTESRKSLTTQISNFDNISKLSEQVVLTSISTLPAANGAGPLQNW
From the text: (§1) As indicated herein, by whole cell FLIPR functional assay data and by comparison with reference compounds not claimed within the present invention, the compounds of the present invention provide increased selectivity for the orexin-1 receptor over the orexin-2 receptor. The increased selectivity for the orexin-1 receptor over the orexin-2 receptor in the whole cell FLIPR functional assay provides enhanced predictive value for determining in vivo efficacy. Increasing the functional selectivity for the orexin-1 receptor reduces the potential for dual receptor antagonism in vivo. Such greater functional selectivity may provide benefits over other orexin receptor antagonists that are known in the art.

hOX1R [1] = biological target: T2, hOX1R (Homo sapiens, UniProt O43613); test: Whole cell FLIPR functional assay, comparison with reference compounds, hOX1R; parameters: expressed in transfected cells; conditions: for Selectivity: orexin-1 receptor over orexin-2 receptor; for IC50: read-out: hOX1R pIC50 (converted)
T2 sequence (O43613 1-425): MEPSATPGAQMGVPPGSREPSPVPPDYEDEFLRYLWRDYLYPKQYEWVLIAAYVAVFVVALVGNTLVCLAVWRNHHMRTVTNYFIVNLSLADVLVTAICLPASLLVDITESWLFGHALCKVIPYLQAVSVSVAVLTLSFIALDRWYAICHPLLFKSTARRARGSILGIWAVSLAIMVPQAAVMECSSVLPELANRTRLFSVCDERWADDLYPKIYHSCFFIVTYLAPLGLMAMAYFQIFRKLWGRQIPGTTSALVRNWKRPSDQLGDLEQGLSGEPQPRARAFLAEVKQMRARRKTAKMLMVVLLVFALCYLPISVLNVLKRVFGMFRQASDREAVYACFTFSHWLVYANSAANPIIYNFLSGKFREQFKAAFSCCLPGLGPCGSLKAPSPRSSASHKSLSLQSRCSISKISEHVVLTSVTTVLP
From the text: as §1

orexin-1 = biological target: T3, orexin-1 (Homo sapiens, UniProt O43613); test: Antagonism against orexin-1 in the aforementioned (above identified) intracellular calcium assays
T3 construct: expressed in transfected cells
T3 sequence (O43613 1-425): T2 sequence (O43613 1-425)
From the text: Antagonism against orexin receptors has been measured for each example compound using at least one of the following procedures. […] These values may fluctuate depending on the daily cellular assay performance. Fluctuations of this kind are known to those skilled in the art. […] Data highlighted with an asterix (*) is derived from a single experiment, otherwise all data reported is an average of at least two independant replicate experiments. […]

hOX1R [2] = biological target: T2, hOX1R; test: Intracellular calcium measurements using division-arrested cells, OX1; conditions: agonist orexin A at 2×EC50, * = single experiment, otherwise average of at least two, read-out: pIC50 OX1 (converted)
How it was run: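 Division-arrested cells expressing human OX1 or OX2 were seeded for 16 h, then loaded with Calcium 5 dye plus probenecid for 1 h at 37 °C. Compounds in HEPES-buffered HBSS with 0.1% BSA, pH 7.4, top final concentration 10 μM, were added 10 min before the FlexStation calcium read.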

IC50 (orexin-1) [µM]	Structure (SMILES)	further results
	CC(C)[C@H](CNc1ccc(Cl)cn1)N(C)C(=O)c1ccccc1-c1ccccc1	IC50 (hOX2R): 2 µM; Selectivity (hOX1R [1]): Selectivity 1.9x; IC50 (hOX1R [1]): 1 µM
	CN(CCNc1ccc(Cl)cn1)C(=O)c1ccccc1-c1ccccc1	IC50 (hOX2R): 0.0794 µM; Selectivity (hOX1R [1]): Selectivity 1.1x; IC50 (hOX1R [1]): 0.0631 µM
> 10	CC[C@@H](COc1nc2ccccc2n1C)NC(=O)c1cc(C)ccc1-n1nccn1 [(S)-5-methyl-N-(1-((1-methyl-1H-benzo[d]imidazol-2-yl)oxy)butan-2-yl)-2-(2H-1,2,3-triazol-2-yl)benzamide]	
> 10	CC[C@@H](CNc1ncc(C(F)(F)F)cn1)N(C)C(=O)c1nc(C(C)(C)O)ccc1-n1nccn1 [(S)-6-(2-hydroxypropan-2-yl)-N-methyl-3-(2H-1,2,3-triazol-2-yl)-N-(1-((5-(trifluoromethyl)pyrimidin-2-yl)amino)butan-2-yl)picolinamide]	
> 10	CCOC(=O)c1ccc(NC[C@H](CC)N(C)C(=O)c2cc(Cl)ccc2-n2nccn2)nc1 [(S)-ethyl 6-((2-(5-chloro-N-methyl-2-(2H-1,2,3-triazol-2-yl)benzamido)butyl)amino) nicotinate]	
> 10	CC[C@@H](COc1nc2ccccc2n1C)N(C)C(=O)c1cc(C)ccc1-n1nccn1 [(S)—N,5-dimethyl-N-(1-((1-methyl-1H-benzo[d]imidazol-2-yl)oxy)butan-2-yl)-2-(2H-1,2,3-triazol-2-yl)benzamide]	
> 10	CC[C@@H](CNc1ccc(Cl)cn1)NC(=O)c1cc(C)ccc1N1CCN(C)CC1 [(S)—N-(1-((5-chloropyridin-2-yl)amino)butan-2-yl)-5-methyl-2-(4-methylpiperazin-1-yl)benzamide]	
> 10	CC[C@@H](CNc1ccc(Cl)cn1)NC(=O)c1cc(C)ccc1N1CCOCC1 [(S)—N-(1-((5-chloropyridin-2-yl)amino)butan-2-yl)-5-methyl-2-morpholinobenzamide]	
> 10	CC[C@@H](CNc1ccc(Cl)cn1)N(C)C(=O)c1nc(C)ncc1-n1nccn1 [(S)—N-(1-((5-chloropyridin-2-yl)amino)butan-2-yl)-N,2-dimethyl-5-(2H-1,2,3-triazol-2-yl)pyrimidine-4-carboxamide]	
> 10	CC[C@@H](CNc1ccc(Cl)cn1)N(C)C(=O)c1cc(C)ccc1N1CCN(C)CC1 [(S)—N-(1-((5-chloropyridin-2-yl)amino)butan-2-yl)-N,5-dimethyl-2-(4-methylpiperazin-1-yl)benzamide]	
4.9	CC[C@@H](CNc1ccc(Cl)cn1)N(C)C(=O)c1cc(C(F)(F)F)ccc1-n1ccnn1 [(S)—N-(1-((5-chloropyridin-2-yl)amino)butan-2-yl)-N-methyl-2-(1H-1,2,3-triazol-1-yl)-5-(trifluoromethyl)benzamide]	
> 10	CC[C@@H](CNC(=O)c1ccccn1)N(C)C(=O)c1cc(Cl)ccc1-n1nccn1 [(S)—N-(2-(5-chloro-N-methyl-2-(2H-1,2,3-triazol-2-yl)benzamido)butyl)picolinamide]	
	CC(C)[C@@H](CNc1ccc(Cl)cn1)N(C)C(=O)c1ccccc1-c1ccccc1 [Example 10, (S)—N-(1-((5-chloropyridin-2-yl)amino)-3-methylbutan-2-yl)-N-methyl-[1,1′-biphenyl]-2-carboxamide]	IC50 (hOX1R [2]): 0.0794 µM; IC50 (hOX2R): 6.31 µM; Selectivity (hOX1R [1]): Selectivity 80x; IC50 (hOX1R [1]): 0.0794 µM
> 10	Cc1ccc(-n2nccn2)c(C(=O)N(C)C(CNc2ccc(Cl)cn2)C2COC2)c1 (stereo not drawn) [N-(2-((5-chloropyridin-2-yl)amino)-1-(oxetan-3-yl)ethyl)-N,5-dimethyl-2-(2H-1,2,3-triazol-2-yl)benzamide]	
